Test results taken from ChEMBL document CHEMBL3879911, “Heteroaryl compounds useful as inhibitors of E1 activating enzymes” (2008).

Target: T1, NEDD8 activating enzyme (Homo sapiens, UniProt Q8TBC4)
T1 sequence (Q8TBC4 whole entry): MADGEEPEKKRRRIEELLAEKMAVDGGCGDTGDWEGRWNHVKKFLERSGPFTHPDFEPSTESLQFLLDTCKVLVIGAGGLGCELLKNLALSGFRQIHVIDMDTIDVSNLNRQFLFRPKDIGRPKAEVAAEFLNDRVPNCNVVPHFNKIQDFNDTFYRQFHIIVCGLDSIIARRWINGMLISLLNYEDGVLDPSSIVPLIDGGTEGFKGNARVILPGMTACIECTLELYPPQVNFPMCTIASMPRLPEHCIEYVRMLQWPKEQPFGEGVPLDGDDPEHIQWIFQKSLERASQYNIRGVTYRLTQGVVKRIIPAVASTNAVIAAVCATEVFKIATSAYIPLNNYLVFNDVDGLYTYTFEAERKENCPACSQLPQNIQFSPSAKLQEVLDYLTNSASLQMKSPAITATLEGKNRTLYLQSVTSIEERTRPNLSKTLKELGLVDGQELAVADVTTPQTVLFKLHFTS
T1 sequence (Q13564 whole entry): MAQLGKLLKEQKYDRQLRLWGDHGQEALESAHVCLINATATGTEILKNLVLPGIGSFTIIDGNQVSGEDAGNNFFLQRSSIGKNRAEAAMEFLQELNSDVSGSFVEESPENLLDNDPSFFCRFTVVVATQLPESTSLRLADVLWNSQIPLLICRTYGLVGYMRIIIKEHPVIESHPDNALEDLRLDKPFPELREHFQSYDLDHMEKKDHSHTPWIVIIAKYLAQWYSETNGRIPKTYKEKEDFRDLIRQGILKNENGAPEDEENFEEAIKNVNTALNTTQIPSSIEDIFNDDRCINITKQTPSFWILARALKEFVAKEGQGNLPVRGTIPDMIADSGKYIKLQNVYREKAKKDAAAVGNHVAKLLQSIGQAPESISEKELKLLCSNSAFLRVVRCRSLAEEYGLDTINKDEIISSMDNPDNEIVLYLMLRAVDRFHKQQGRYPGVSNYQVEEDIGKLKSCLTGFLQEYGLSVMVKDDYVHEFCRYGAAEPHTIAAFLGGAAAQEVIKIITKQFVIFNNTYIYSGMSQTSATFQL
Test: Inhibition of recombinant human NAEalpha/N-terminal His-tagged NAEbeta expressed in baculovirus infected insect Sf9 cells using N-terminal FLAG tagged Nedd8 as substrate incubated for 105 mins in presence of N-terminal GST-tagged Ubc12 by FRET assay

`NS(=O)(=O)OC[C@H]1C[C@@H](Nc2cc(N[C@H]3CCc4c(F)ccc(F)c43)ncn2)[C@H](O)[C@@H]1O` and `NS(=O)(=O)OC[C@H]1C[C@@H](Nc2cc(N[C@H]3CCc4c(F)cccc43)ncn2)[C@H](O)[C@@H]1O` cannot be ordered by IC50: no more than 500 nM for the first, no more than 500 nM for the second.

`NS(=O)(=O)OC[C@H]1C[C@@H](Nc2cc(N[C@H]3CCc4cc(Cl)ccc43)ncn2)[C@H](O)[C@@H]1O` and `NS(=O)(=O)OC[C@H]1C[C@@H](Nc2cc(N[C@H]3CCc4c(Cl)cccc43)ncn2)[C@H](O)[C@@H]1O` cannot be ordered by IC50: no more than 500 nM for the first, no more than 500 nM for the second.

Going from `NS(=O)(=O)OC[C@H]1C[C@@H](O)[C@H](Nc2cc(N[C@H]3CCc4ccccc43)ncn2)C1` to `NS(=O)(=O)OC[C@H]1C[C@@H](Nc2cc(N[C@H]3CCc4ccccc43)ncn2)C[C@@H]1O`, the IC50 falls from greater than 10000 nM to no more than 500 nM.

`NS(=O)(=O)OC[C@H]1C[C@@H](NC(=O)c2ccncc2)[C@H](O)[C@@H]1O` and `NS(=O)(=O)OC[C@H]1C[C@@H](NC(=O)c2cccnc2)[C@H](O)[C@@H]1O` fall in the same range of IC50: 500 to 10000 nM for the first, 500 to 10000 nM for the second.

`NS(=O)(=O)OC[C@@H]1C[C@@H](Nc2c(Cl)cnc3[nH]c(-c4cccc5ccccc45)nc23)C[C@@H]1O` and `NS(=O)(=O)OC[C@@H]1C[C@@H](Nc2ncnc3[nH]c(-c4cccc5ccccc45)nc23)C[C@@H]1O` cannot be ordered by IC50: no more than 500 nM for the first, no more than 500 nM for the second.

`NS(=O)(=O)OC[C@H]1C[C@@H](Nc2cc(N[C@H]3CCc4ccccc43)ncn2)[C@H](O)[C@@H]1O` and `NS(=O)(=O)OC[C@H]1C[C@@H](Nc2cc(N[C@@H]3CCc4ccccc43)ncn2)[C@H](O)[C@@H]1O` cannot be ordered by IC50: no more than 500 nM for the first, no more than 500 nM for the second.

`CC1(C)C[C@H](Nc2cc(N[C@@H]3C[C@@H](COS(N)(=O)=O)[C@@H](O)C3)ncn2)c2ccccc21` and `CC1(C)C[C@H](Nc2cc(N[C@@H]3C[C@H](COS(N)(=O)=O)[C@@H](O)[C@H]3O)ncn2)c2ccccc21` cannot be ordered by IC50: no more than 500 nM for the first, no more than 500 nM for the second.

`CN(Cc1ccccc1)c1cc(N[C@@H]2C[C@H](COS(N)(=O)=O)[C@@H](O)[C@H]2O)ncn1` and `CN(Cc1ccccc1)c1nccc(N[C@@H]2C[C@H](COS(N)(=O)=O)[C@@H](O)[C@H]2O)n1` cannot be ordered by IC50: greater than 10000 nM for the first, greater than 10000 nM for the second.

`Cn1c(-c2ccccc2)nc2ncnc(N[C@@H]3C[C@@H](COS(N)(=O)=O)[C@@H](O)C3)c21` and `NS(=O)(=O)OC[C@@H]1C[C@@H](Nc2ncnc3[nH]c(-c4ccccc4)nc23)C[C@@H]1O` cannot be ordered by IC50: 500 to 10000 nM for the first, no more than 500 nM for the second.

`CN(C)c1ccc(-c2nc3c(N[C@@H]4C[C@@H](COS(N)(=O)=O)[C@@H](O)C4)ncnc3[nH]2)c2ccccc12` and `NS(=O)(=O)OC[C@@H]1C[C@@H](Nc2ncnc3[nH]c(-c4cccc5c4oc4ccccc45)nc23)C[C@@H]1O` cannot be ordered by IC50: no more than 500 nM for the first, no more than 500 nM for the second.

First: NS(=O)(=O)OC[C@H]1C[C@@H](NC(=O)c2ccccn2)[C@H](O)[C@@H]1O
Second: NS(=O)(=O)OC[C@H]1C[C@@H](Nc2ccnc(NCc3ccccc3)n2)[C@H](O)[C@@H]1O
The IC50 of the first is higher: greater than 10000 nM for the first, 500 to 10000 nM for the second.

`Cc1nc(N[C@H]2CCc3ccccc32)cc(N[C@@H]2C[C@H](COS(N)(=O)=O)[C@@H](O)[C@H]2O)n1` and `NS(=O)(=O)OC[C@@H]1C[C@@H](Nc2cc(N[C@H]3CCc4ccccc43)ncn2)[C@H](O)[C@@H]1O` cannot be ordered by IC50: no more than 500 nM for the first, no more than 500 nM for the second.

`CO[C@H]1Cc2ccccc2[C@H]1Nc1cc(N[C@@H]2C[C@H](COS(N)(=O)=O)[C@@H](O)[C@H]2O)ncn1` and `CO[C@H]1Cc2ccccc2[C@H]1Nc1ncnc(N[C@@H]2C[C@H](COS(N)(=O)=O)[C@@H](O)[C@H]2O)n1` cannot be ordered by IC50: no more than 500 nM for the first, no more than 500 nM for the second.

`NS(=O)(=O)OC[C@@H]1C[C@@H](Nc2ncnc3[nH]c(-c4cccc5c4OCCO5)nc23)C[C@@H]1O` and `Cc1cccc(-c2nc3c(N[C@@H]4C[C@@H](COS(N)(=O)=O)[C@@H](O)C4)ncnc3[nH]2)c1C` cannot be ordered by IC50: no more than 500 nM for the first, no more than 500 nM for the second.

`NS(=O)(=O)OC[C@H]1C[C@@H](Nc2ncnc3[nH]cnc23)[C@H](O)[C@@H]1O` and `NS(=O)(=O)OC[C@H]1C[C@@H](Nc2ncnc3[nH]c(-c4ccccc4)nc23)[C@H](O)[C@@H]1O` cannot be ordered by IC50: no more than 500 nM for the first, no more than 500 nM for the second.

`CC1(C)C[C@H](Nc2cc(O[C@@H]3C[C@@H](COS(N)(=O)=O)[C@@H](O)C3)ccn2)c2ccc(Cl)cc21` and `NS(=O)(=O)OC[C@@H]1C[C@@H](Oc2cc(N[C@H]3CCc4ccccc43)ncn2)C[C@@H]1O` cannot be ordered by IC50: 500 to 10000 nM for the first, no more than 500 nM for the second.

`CN(c1ncnc2[nH]c(-c3cccc4ccccc34)nc12)[C@@H]1C[C@@H](COS(N)(=O)=O)[C@@H](O)C1` and `NS(=O)(=O)OC[C@@H]1C[C@@H](Nc2ncnc3[nH]c(-c4cccc5ccccc45)cc23)C[C@@H]1O` cannot be ordered by IC50: no more than 500 nM for the first, no more than 500 nM for the second.

`NS(=O)(=O)OC[C@@H]1C[C@@H](Nc2ncnc3[nH]c(-c4ccccc4Cl)nc23)C[C@@H]1O` and `NS(=O)(=O)OC[C@@H]1C[C@@H](Nc2ncnc3[nH]c(-c4cccc(Cl)c4)nc23)C[C@@H]1O` cannot be ordered by IC50: no more than 500 nM for the first, no more than 500 nM for the second.

`NS(=O)(=O)OC[C@@H]1C[C@@H](Nc2ncnc3[nH]c(-c4ccccc4OCc4ccccc4)nc23)C[C@@H]1O` and `NS(=O)(=O)OC[C@@H]1C[C@@H](Nc2ncnc3[nH]c(-c4ccccc4Oc4ccccc4)nc23)C[C@@H]1O` cannot be ordered by IC50: no more than 500 nM for the first, no more than 500 nM for the second.

`NS(=O)(=O)OC[C@@H]1C[C@@H](Oc2cc(N[C@H]3CCCc4ccccc43)ncn2)C[C@@H]1O` and `C[C@H]1Cc2ccccc2[C@H]1Nc1cc(O[C@@H]2C[C@@H](COS(N)(=O)=O)[C@@H](O)C2)ncn1` cannot be ordered by IC50: no more than 500 nM for the first, no more than 500 nM for the second.

`CO[C@H]1Cc2ccccc2[C@H]1Nc1cc(N[C@@H]2C[C@@H](COS(N)(=O)=O)[C@@H](O)C2)ncn1` and `NS(=O)(=O)OC[C@@H]1C[C@@H](Nc2cc(N[C@H]3CCc4ccccc43)ncn2)C[C@@H]1O` cannot be ordered by IC50: no more than 500 nM for the first, no more than 500 nM for the second.

`NS(=O)(=O)OC[C@@H]1C[C@@H](Nc2cc(N[C@H]3CCc4ccccc43)nc(=O)[nH]2)C[C@@H]1O` and `NS(=O)(=O)OC[C@@H]1C[C@@H](Cc2cc(N[C@H]3CCc4ccccc43)ncn2)C[C@@H]1O` fall in the same range of IC50: 500 to 10000 nM for the first, 500 to 10000 nM for the second.

First: Cc1nc(NCc2ccccc2)cc(N[C@@H]2C[C@H](COS(N)(=O)=O)[C@@H](O)[C@H]2O)n1
Second: NS(=O)(=O)OC[C@H]1C[C@@H](Nc2cc(NCc3ccccc3)ncn2)[C@H](O)[C@@H]1O
The IC50 of the first is higher: greater than 10000 nM for the first, no more than 500 nM for the second.

`NS(=O)(=O)OC[C@H]1C[C@@H](Nc2ccnc(NCC3CCCCC3)n2)[C@H](O)[C@@H]1O` and `NS(=O)(=O)OC[C@H]1C[C@@H](Nc2cc(NCC3CCCCC3)ncn2)[C@H](O)[C@@H]1O` cannot be ordered by IC50: 500 to 10000 nM for the first, no more than 500 nM for the second.

`NS(=O)(=O)OC[C@H]1C[C@@H](Nc2cc(N[C@H]3CCc4cc(F)c(F)cc43)ncn2)[C@H](O)[C@@H]1O` and `NS(=O)(=O)OC[C@H]1C[C@@H](Nc2cc(N[C@H]3CCCc4ccccc43)ncn2)[C@H](O)[C@@H]1O` cannot be ordered by IC50: no more than 500 nM for the first, no more than 500 nM for the second.

`Cc1c(N[C@H]2CCc3ccccc32)ncnc1O[C@@H]1C[C@@H](COS(N)(=O)=O)[C@@H](O)C1` and `NS(=O)(=O)OC[C@@H]1C[C@@H](Oc2cc(N3CCc4ccccc4C3)ncn2)C[C@@H]1O` cannot be ordered by IC50: greater than 10000 nM for the first, greater than 10000 nM for the second.

`CC1CC(Nc2nccc(N[C@@H]3C[C@H](COS(N)(=O)=O)[C@@H](O)[C@H]3O)n2)c2ccccc21` (stereo partly specified) and `CC1(C)C[C@H](Nc2nccc(N[C@@H]3C[C@H](COS(N)(=O)=O)[C@@H](O)[C@H]3O)n2)c2ccccc21` cannot be ordered by IC50: no more than 500 nM for the first, no more than 500 nM for the second.

`NS(=O)(=O)OC[C@@H]1C[C@@H](Nc2ncnc3[nH]c(-c4ccccc4OC(F)(F)F)nc23)C[C@@H]1O` and `NS(=O)(=O)OC[C@@H]1C[C@@H](Nc2ncnc3[nH]c(-c4ccccc4-c4ccccc4)nc23)C[C@@H]1O` cannot be ordered by IC50: no more than 500 nM for the first, 500 to 10000 nM for the second.

`NS(=O)(=O)OC[C@@H]1C[C@@H](Oc2cc(NCc3cccc4ccccc34)ncn2)C[C@@H]1O` and `CN(C)C[C@H]1Cc2ccccc2[C@H]1Nc1cc(O[C@@H]2C[C@@H](COS(N)(=O)=O)[C@@H](O)C2)ncn1` cannot be ordered by IC50: no more than 500 nM for the first, 500 to 10000 nM for the second.

`NS(=O)(=O)OC[C@H]1C[C@@H](Nc2ncnc(N[C@@H]3CCc4ccccc43)n2)[C@H](O)[C@@H]1O` and `Cc1nc(N[C@H]2CCc3ccccc32)nc(N[C@@H]2C[C@H](COS(N)(=O)=O)[C@@H](O)[C@H]2O)n1` cannot be ordered by IC50: no more than 500 nM for the first, no more than 500 nM for the second.

First: Cc1nc(N)cc(N[C@@H]2C[C@H](COS(N)(=O)=O)[C@@H](O)[C@H]2O)n1
Second: CN(C)C(=O)[C@H]1Cc2ccccc2[C@H]1Nc1cc(O[C@@H]2C[C@@H](COS(N)(=O)=O)[C@@H](O)C2)ncn1
The IC50 of the first is higher: greater than 10000 nM for the first, 500 to 10000 nM for the second.

`CC1(C)C[C@H](Nc2ncnc(N[C@@H]3C[C@@H](COS(N)(=O)=O)[C@@H](O)C3)c2F)c2ccccc21` and `NS(=O)(=O)OC[C@@H]1C[C@@H](Nc2ncnc3[nH]c(-c4ccccc4)cc23)C[C@@H]1O` cannot be ordered by IC50: no more than 500 nM for the first, no more than 500 nM for the second.

`NS(=O)(=O)OC[C@@H]1C[C@@H](Oc2ncnc3nc(-c4ccnc5cc(Cl)ccc45)[nH]c23)C[C@@H]1O` and `NS(=O)(=O)OC[C@@H]1C[C@@H](Oc2ncnc3[nH]c(-c4ccccc4)nc23)C[C@@H]1O` cannot be ordered by IC50: no more than 500 nM for the first, no more than 500 nM for the second.
